In ChEMBL document CHEMBL4177640, “Potential anti-proliferative agents from 1,4-benzoxazinone-quinazolin-4(3H)-one templates” (2017):

How the values were obtained:
Format in all cases: functional
MDA-MB-231 = assay: Antiproliferative activity against human MDA-MB-231 cells after 48 hrs by SRB cell proliferation assay; details: MDA-MB-231, 48 h
HeLa = assay: Antiproliferative activity against human HeLa cells after 48 hrs by SRB cell proliferation assay
A549 = assay: Antiproliferative activity against human A549 cells after 48 hrs by SRB cell proliferation assay; details: A549, 48 h

GI50 (MDA-MB-231) [nM] | GI50 (HeLa) [nM] | GI50 (A549) [nM] | SMILES
1130 | 1050 | 1000 | CCOc1ccc(-c2nc3ccccc3c(=O)n2C/C=C/c2ccc(C(=O)CN3C(=O)COc4ccccc43)cc2)cc1
1520 | 1020 | 810 | O=C(CN1C(=O)COc2ccccc21)c1ccc(/C=C/Cn2c(-c3ccc(F)cc3)nc3ccccc3c2=O)cc1
6030 | 590 | 1360 | COc1ccc(-c2nc3ccccc3c(=O)n2C/C=C/c2ccc(C(=O)CN3C(=O)COc4ccccc43)cc2)c(OC)c1
580 | 1320 | 930 | O=C(CN1C(=O)COc2ccccc21)c1ccc(/C=C/Cn2c(-c3ccc(C(F)(F)F)cc3)nc3ccccc3c2=O)cc1
2730 | 620 | 910 | O=C(CN1C(=O)COc2ccccc21)c1ccc(/C=C/Cn2c(-c3ccc(Cl)cc3Cl)nc3ccccc3c2=O)cc1
8800 | 660 | 1000 | O=C(CN1C(=O)COc2ccccc21)c1ccc(/C=C/Cn2c(-c3ccc([N+](=O)[O-])cc3)nc3ccccc3c2=O)cc1
46 | 84 | 56 | COc1ccc(/C=C\c2cc(OC)c(OC)c(OC)c2)cc1O [COMBRETASTATIN A4]
3400 | 1400 | 900 | Cc1ccc(-c2nc3ccccc3c(=O)n2C/C=C/c2ccc(C(=O)CN3C(=O)COc4ccccc43)cc2)cc1
13400 | 1370 | 1000 | O=C(CN1C(=O)COc2ccccc21)c1ccc(/C=C/Cn2c(-c3ccccc3)nc3ccccc3c2=O)cc1
2400 | 370 | 670 | COc1ccc(-c2nc3ccccc3c(=O)n2C/C=C/c2ccc(C(=O)CN3C(=O)COc4ccccc43)cc2)c(F)c1
13000 | 550 | 610 | COc1cccc(-c2nc3ccccc3c(=O)n2C/C=C/c2ccc(C(=O)CN3C(=O)COc4ccccc43)cc2)c1
6760 | 1510 | 320 | COc1ccc(-c2nc3ccccc3c(=O)n2C/C=C/c2ccc(C(=O)CN3C(=O)COc4ccccc43)cc2)c(OC)c1OC
< 10 | < 10 | < 10 | COC(=O)Nc1nc2cc(C(=O)c3cccs3)ccc2[nH]1 [NOCODAZOLE]
3600 | 1030 | 1500 | COc1ccc(-c2nc3ccccc3c(=O)n2C/C=C/c2ccc(C(=O)CN3C(=O)COc4ccccc43)cc2)cc1
6140 | 880 | 910 | Cc1nc2ccccc2c(=O)n1C/C=C/c1ccc(C(=O)CN2C(=O)COc3ccccc32)cc1
2000 | 1100 | 760 | O=C(CN1C(=O)COc2ccccc21)c1ccc(/C=C/Cn2c(-c3ccc(Cl)cc3)nc3ccccc3c2=O)cc1
